Experiments:
[1] = test system: rice seeds; details: in vivo
Description: Seed was tested for germination in an incubator and also flown onto a flooded field under standard agricultural practices.

[2] = test system: rice seeds; experiment: Seedling growth of pregerminated rice seed coated with gibberellic acid, sown by plane in flooded field
[3] = test system: rice seeds; experiment: Stand establishment of pregerminated rice seed treated with mancozeb slurry, flown onto flooded fields; assay type: in vivo; details: slurry at 19-22 fluid ounces per hundred pounds of seed

Which results are given for N#Cc1nn(-c2c(Cl)cc(C(F)(F)F)cc2Cl)c(N)c1[S+]([O-])C(F)(F)F (stereo not drawn) [fipronil, 5-amino-1-(2,6-dichloro-4-trifluoromethylphenyl)-4-trifluoromethylsulfinyl-3-cyanopyrazole]?
appearance of pregerminated seeds after machine mixing [1]: appeared undamaged; stand establishment [1]: the same as untreated seed

What does the source list for C=C1C[C@]23C[C@@]1(O)CC[C@H]2[C@@]12C=C[C@H](O)[C@@](C)(C(=O)O1)[C@H]2[C@@H]3C(=O)O [gibberellic acid]?
size of root relative to shoot ([2]; 3 to 10 days after sowing): approximately the same size; resistance of seedlings to wind ([2]; 3 to 10 days after sowing, located in the soil at a depth of 0 to 2 mm): highly resistant to wind; appearance of germinated seeds after machine mixing ([2]; […], radicles 1 to 8 mm): appeared undamaged

Which “stand of rice plants established” value [3] does the source give for “[[1,2-ethanediylbis[carbamodithioato]](2-)]manganese mixture with [[1,2-ethanediylbis [carbamodithioato]](2—)]zinc [mancozeb]” here?
Its value is “acceptable stand”.
